From US9884841B2, “Small molecule inhibitors of Mcl-1 and uses thereof” (The Regents of the University of Michigan, priority 2015, dated 2018)

Experiments:
Mcl-1 knockout MEFs = type: cell-based; conditions: 15 h
Protocol: Cell viability was assessed using propidium iodide staining detected with flow cytometry. […] The percentage of dead cells was calculated using LIVE/DEAD fixable violet dead cell stain (VIVID) and detected with flow cytometry.

Panc-1 cells = assay: Cell growth inhibition of Panc-1 by MTT assay, ABT-263 with 483; type: cell-based; conditions: Panc-1, 48 h
Description: FIG. 7: 483 synergizes with ABT-263 to kill Panc-1 cells.
As expected, ABT-263 had little effect on this cell line (FIG. 7).

Mcl-1 [1] = biological target: T1, Mcl-1 (Homo sapiens, UniProt Q07820); assay: FP based binding assay to Mcl-1 (Bid BH3 peptide probe)
Mcl-1 [2] = biological target: T1, Mcl-1; assay: HSQC NMR spectroscopy of binding to Mcl-1 protein; conditions: compound in complex with Mcl-1
Description: [drawing 85] with 5,6-difuran-2-yl-1,2,4-triazine core identified with high throughput screening (see, e.g., Du, Y., et al., Assay and drug development technologies 9, 382-393). […] The second furan ring has weak hydrophobic interaction with residues Phe 318 and Phe 319, which are located proximal to the conserved h4 pocket (FIG. 1). These two residues were identified that contribute to additional hydrophobic contacts with the staple of a reported stabilized α-helix (see, e.g., Stewart, M. L., et al., Nat Chem Biol 6, 595-601).
[drawing 86] was de-novo designed (FIG. 1). In the 368, one furan ring was replaced with carboxylate moiety in order to improve the conserved hydrogen bond, the other furan ring was replaced with phenylsulfonamido and the side chain was changed to phenethylthio substituent in order to allow further modification for improving hydrophobic interactions.

Bcl-xL = Bcl-xL (Homo sapiens, UniProt Q07817); assay: Cell-free functional assay with purified mitochondria, Smac release, Bcl-xL; type: biochemical; conditions: concentrations as high as 9 μM
Description: To provide direct evidence that 483 and 487 also selectively antagonize Mcl-1 function, a cell-free functional assay was established using purified mitochondria, recombinant Mcl-1 and Bcl-xL proteins, and the BIM BH3 peptide which binds to both proteins with high affinities.

[3] = FP assay using Bid BH3 peptide as a probe
[4] = Binding affinity of Mcl-1 inhibitors using FP based assay, Table 1

T1 sequence (Q07820 whole entry): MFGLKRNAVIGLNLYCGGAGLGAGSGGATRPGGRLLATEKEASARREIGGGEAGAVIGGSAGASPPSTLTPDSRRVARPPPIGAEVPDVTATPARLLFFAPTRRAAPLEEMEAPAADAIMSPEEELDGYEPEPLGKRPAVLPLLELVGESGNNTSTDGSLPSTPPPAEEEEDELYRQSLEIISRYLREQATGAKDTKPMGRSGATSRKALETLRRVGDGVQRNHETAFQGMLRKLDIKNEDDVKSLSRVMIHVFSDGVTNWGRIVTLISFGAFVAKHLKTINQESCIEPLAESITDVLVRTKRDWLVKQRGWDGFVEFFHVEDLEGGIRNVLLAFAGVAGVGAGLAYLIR
Chain of Bcl-xL (Q07817 whole entry, species assumed): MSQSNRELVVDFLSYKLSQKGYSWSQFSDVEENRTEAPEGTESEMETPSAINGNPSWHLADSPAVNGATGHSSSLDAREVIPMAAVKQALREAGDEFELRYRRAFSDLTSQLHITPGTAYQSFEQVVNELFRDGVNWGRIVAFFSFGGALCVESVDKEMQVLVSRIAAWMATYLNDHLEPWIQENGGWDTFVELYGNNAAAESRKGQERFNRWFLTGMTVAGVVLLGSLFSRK

| SMILES | Ki (Mcl-1 [1]; [4]) | also measured |
| --- | --- | --- |
| CC1(C)CCC(c2ccc(Cl)cc2)=C(CN2CCN(c3ccc(C(=O)NS(=O)(=O)c4ccc(N[C@H](CCN5CCOCC5)CSc5ccccc5)c(S(=O)(=O)C(F)(F)F)c4)cc3)CC2)C1 [ABT-263, reference compound] | – | cytotoxicity / growth-inhibitory activity (Mcl-1 knockout MEFs): increased growth-inhibitory activity; effect on cell line, single agent (Panc-1 cells): little effect |
| O=C(O)c1cc(SCCc2ccccc2)ccc1NS(=O)(=O)c1ccccc1 [Compound 368, 5-(Phenethylthio)-2-(phenylsulfonamido)benzoic acid] | – | Ki (Mcl-1 [1]; [3]): 490 ± 10 nM; chemical shift perturbations in HSQC NMR spectrum (Mcl-1 [2]): large chemical shift perturbations |
| O=C(O)c1cc(SCCc2ccccc2)ccc1NS(=O)(=O)c1ccc(Oc2ccccc2)cc1 [Compound 376, 5-(Phenethylthio)-2-(4-phenoxyphenylsulfonamido)benzoic acid] | 44 ± 14 nM | – |
| O=C(O)c1cc(-c2ccc(COc3cccc4ccccc34)cc2)ccc1NS(=O)(=O)c1ccc2ccccc2c1 [Compound 475, 4′-((naphthalen-1-yloxy)methyl)-4-(naphthalene-2-sulfonamido)-[1,1′-biphenyl]-3-carboxylic acid] | – | Ki (Mcl-1 [1]; binding affinity to Mcl-1): 27 ± 5 nM; improvement in comparison with 382 (Mcl-1 [1]; relative to 382): 6 fold |
| CC(C)c1cc(NS(=O)(=O)c2ccc(Oc3ccc(F)cc3)cc2)c(C(=O)O)cc1-c1ccc(COc2cccc(C(F)(F)F)c2)cc1 [Compound 480, 4-(4-(4-fluorophenoxy)phenylsulfonamido)-6-isopropyl-4′-((3-(trifluoromethyl)phenoxy)methyl)-[1,1′-biphenyl]-3-carboxylic acid] | 10 ± 3 nM | – |
| O=C(CSc1ccc(NS(=O)(=O)c2ccccc2)c(C(=O)O)c1)Nc1ccccc1 [Compound 395] | > 2000 nM | – |
| O=C(O)c1ccccc1NS(=O)(=O)c1ccccc1 [Compound 455, 2-(phenylsulfonamido)benzoic acid] | > 2000 nM | – |
| O=C(O)c1cc(NCCc2ccccc2)ccc1NS(=O)(=O)c1ccccc1 [Compound 404, 5-(phenethylamino)-2-(phenylsulfonamido)benzoic acid] | 5740 ± 749 nM | – |
| Cc1cccc(-c2cc(NS(=O)(=O)c3ccccc3)c(C(=O)O)cc2SCCC(=O)Nc2ccccc2)c1 [Compound 485] | 437 ± 67 nM | – |
| COC(=O)c1cc(-c2ccc(COc3cccc(C(F)(F)F)c3)cc2)c(C(C)C)cc1NC(=O)c1ccc(Oc2ccccc2)cc1 [Compound 486, methyl 6-isopropyl-4-(4-phenoxybenzamido)-4′-((3-(trifluoromethyl)phenoxy)methyl)-[1,1′-biphenyl]-3-carboxylate] | > 2000 nM | – |
| CC(C)c1cc(NS(=O)(=O)c2ccc3ccccc3c2)c(C(=O)O)cc1-c1ccc(COc2cccc(C(F)(F)F)c2)cc1 [Compound 474, 6-isopropyl-4-(naphthalene-2-sulfonamido)-4′-((3-(trifluoromethyl)phenoxy)methyl)-[1,1′-biphenyl]-3-carboxylic acid] | 23 ± 3 nM | – |
| O=C(Nc1ccc(SCCc2ccccc2)cc1C(=O)O)c1ccccc1 [Compound 364, 2-Benzamido-5-(phenethylthio)benzoic acid] | 891 ± 185 nM | – |
| O=C(O)c1cc(-c2ccc(COc3cccc(C(F)(F)F)c3)cc2)ccc1NS(=O)(=O)c1ccc2ccccc2c1 [Compound 471, 4-(naphthalene-2-sulfonamido)-4′-((3-(trifluoromethyl)phenoxy)methyl)-[1,1′-biphenyl]-3-carboxylic acid] | 36 ± 6 nM | – |
| O=C(O)c1cc(SCCc2ccccc2)ccc1NS(=O)(=O)c1ccc(-c2ccc(Cl)cc2)cc1 [Compound 380, 2-(4′-chloro-[1,1′-biphenyl]-4-ylsulfonamido)-5-(phenethylthio)benzoic acid] | – | improvement of binding potency (Mcl-1 [1]; R1 optimisation starting from 368): 16 fold; Ki (Mcl-1 [1]; binding affinity to Mcl-1): 31 nM |
| O=C(O)c1ccccc1NS(=O)(=O)c1ccc2ccccc2c1 [Compound 453, 2-(naphthalene-2-sulfonamido)benzoic acid] | > 2000 nM | – |
| CCCc1ccc(-c2ccc(NS(=O)(=O)c3ccc4ccccc4c3)c(C(=O)O)c2)cc1 [Compound 466, 4-(naphthalene-2-sulfonamido)-4′-propyl-[1,1′-biphenyl]-3-carboxylic acid] | 94 ± 17 nM | – |
| Nc1ccc(SCCc2ccccc2)cc1C(=O)O [Compound 416, 2-Amino-5-(phenethylthio)benzoic acid] | 1450 ± 132 nM | – |
| O=C(O)c1cc(SCCc2ccccc2)ccc1NS(=O)(=O)N1CCN(Cc2ccccc2)CC1 [Compound 414, 2-(1-benzylpiperazine-4-sulfonamido)-5-(phenethylthio)benzoic acid] | 275 ± 21 nM | – |
| O=C(CSc1nnc(-c2ccco2)c(-c2ccco2)n1)Nc1ccccc1 [Compound E238, reference compound] | – | Ki (Mcl-1 [1]; [3]): 2090 ± 180 nM; chemical shift perturbations in HSQC NMR spectrum (Mcl-1 [2]): concentration-dependent perturbations |
| O=C(O)c1cc(SCc2ccccc2)ccc1NS(=O)(=O)c1ccccc1 [Compound 392, 5-(Benzylthio)-2-(phenylsulfonamido)benzoic acid] | 993 ± 178 nM | – |
| O=C(O)c1ccccc1NS(=O)(=O)N1CCN(c2ccccc2)CC1 [Compound 460, 2-(1-phenylpiperazine-4-sulfonamido)benzoic acid] | > 2000 nM | Mcl-1 binding, in words (Mcl-1 [1]): deleterious |
| O=C(CCc1ccccc1)Nc1ccc(SCCc2ccccc2)cc1C(=O)O [Compound 454, 5-(phenethylthio)-2-(3-phenylpropanamido)benzoic acid] | 874 ± 246 nM | – |
| Nc1ccc(-c2ccccc2COc2cccc(C(F)(F)F)c2)cc1C(=O)O [Compound 467, 4-amino-2′-((3-(trifluoromethyl)phenoxy)methyl)-[1,1′-biphenyl]-3-carboxylic acid] | 1160 ± 196 nM | – |
| O=C(O)c1cc(SCc2ccccc2)ccc1NS(=O)(=O)N1CCN(c2ccccc2)CC1 [Compound 456, 5-(benzylthio)-2-(1-phenylpiperazine-4-sulfonamido)benzoic acid] | 387 ± 138 nM | – |
| CC(C)c1cc(NS(=O)(=O)c2ccc(Oc3ccccc3)cc2)c(C(=O)O)cc1-c1ccc(COc2cccc(C(F)(F)F)c2)cc1 [Compound 477, 6-isopropyl-4-(4-phenoxyphenylsulfonamido)-4′-((3-(trifluoromethyl)phenoxy)methyl)-[1,1′-biphenyl]-3-carboxylic acid] | 13 ± 3 nM | – |
| O=C(O)c1cc(SCCc2ccccc2)ccc1NS(=O)(=O)c1ccc(C2CCCCC2)cc1 [Compound 418, 2-(4-cyclohexylphenylsulfonamido)-5-(phenethylthio)benzoic acid] | 31 ± 10 nM | – |
| CC(C)c1cc(NC(=O)c2ccc(Oc3ccc(F)cc3)cc2)c(C(=O)O)cc1-c1ccc(COc2cccc(C(F)(F)F)c2)cc1 [Compound 487, 4-(4-(4-fluorophenoxy)benzamido)-6-isopropyl-4′-((3-(trifluoromethyl)phenoxy)methyl)-[1,1′-biphenyl]-3-carboxylic acid] | 8 ± 2 nM | release of Smac in the Bcl-xL functional assay (Bcl-xL): fail to release Smac |
| O=C(O)c1cc(SCCc2ccccc2)ccc1NS(=O)(=O)CCc1ccccc1 [Compound 443, 5-(phenethylthio)-2-(2-phenylethylsulfonamido)benzoic acid] | 343 ± 33 nM | – |
